Values joined by “and” are separate entries in the source; they are usually repeats but may differ in a detail not shown here. Equal values may be shown once.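 Cultured in 96-well plates, cells were exposed to test compound for 48 hours across five concentrations. GI50 = concentration required for 50% inhibition of growth. TGI: total growth inhibition.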
Legend:
Test in all cases: NCI anticancer screen, dose series, 48 h
U251 CNS = tested on: U251 CNS
UACC-257 melanoma = tested on: UACC-257 melanoma
ACHN renal = tested on: ACHN renal
DU-145 prostate = tested on: DU-145 prostate
T-47D breast = tested on: T-47D breast
MDA-MB-435 = tested on: MDA-MB-435
EKVX NSCLC = tested on: EKVX NSCLC
A498 renal = tested on: A498 renal
K-562 leukemia = tested on: K-562 leukemia
SNB-19 CNS = tested on: SNB-19 CNS

SMILES | GI50 (U251 CNS) | TGI (U251 CNS) | GI50 (UACC-257 melanoma) | TGI (UACC-257 melanoma) | GI50 (ACHN renal) | TGI (ACHN renal) | GI50 (DU-145 prostate) | TGI (DU-145 prostate) | GI50 (T-47D breast) | TGI (T-47D breast) | GI50 (MDA-MB-435) | TGI (MDA-MB-435) | GI50 (EKVX NSCLC) | TGI (EKVX NSCLC) | GI50 (A498 renal) | TGI (A498 renal) | GI50 (K-562 leukemia) | TGI (K-562 leukemia) | GI50 (SNB-19 CNS) | TGI (SNB-19 CNS)
O=C(Nc1ccc(Cl)cc1)c1cc(-c2ccc(Cl)cc2)c2sc(=O)[nH]c2n1 | 1.88 µM | 11.8 µM | 1.19 µM | 4.69 µM | 2.27 µM | 8.89 µM | 3.31 µM | 26.5 µM | 0.584 µM | 5.46 µM | 2.7 µM | 11.2 µM | 1.63 µM | 11.7 µM | 0.472 µM | 3.42 µM | 1.27 µM | > 100 µM | 3.64 µM | > 100 µM
COc1ccccc1/C=N\N=C(N/N=C/c1ccccc1OC)N/N=C/c1ccccc1OC | 2.67 µM | 15 µM | 3.12 µM | 10.2 µM | 3.14 µM | > 100 µM | 3.92 µM | > 100 µM | 3.27 µM | 9.69 µM | 2.36 µM | 6.49 µM | 2.68 µM | > 100 µM | 2.73 µM | 9.92 µM | 3.09 µM | 36.4 µM | 3.37 µM | > 100 µM
COc1cccc2c1C(=O)c1c(O)c3c(c(O)c1C2=O)C[C@@](O)(C(=O)CO)C[C@@H]3OC1C[C@H](N)[C@H](O)[C@H](C)O1 (some centres undefined) | 0.025 µM | 2.25 µM | 0.102 µM | 1.8 µM | 0.0257 µM | 0.242 µM | 0.0684 µM | – | 0.0409 µM | 1.06 µM | 0.109 µM | 0.574 µM | 0.201 µM | 5.28 µM | 0.0482 µM | 0.146 µM | 0.089 µM | 3.18 µM | 0.0246 µM | 6.33 µM
C=C1C(=O)O[C@H]2[C@H]1CC/C(COC(=O)NCCc1c[nH]c3ccc(OC)cc13)=C\CC[C@@]1(C)O[C@@H]21 | 4.3 µM | 15.9 µM | 1.52 µM | 3.3 µM | 1.38 µM | 2.72 µM | 1.61 µM | 4.43 µM | 1.81 µM | 4.53 µM | 1.8 µM | 4.06 µM | 1.94 µM | 5.45 µM | 10.5 µM | 22.7 µM | 0.453 µM | 3.29 µM | 10 µM | 21.9 µM
COc1ccccc1C#Cc1ccccc1C#CCCCCCC#Cc1ccccc1C#Cc1ccccc1OC | 97.1 µM | > 100 µM | > 100 µM | > 100 µM | > 100 µM | > 100 µM | > 100 µM | > 100 µM | 6.75 µM | > 100 µM | 83.8 µM | > 100 µM | > 100 µM | > 100 µM | > 100 µM | > 100 µM | 31 µM | > 100 µM | > 100 µM | > 100 µM
NC1=NC(c2ccc(Cl)cc2)C2=C(N1)/C(=C/c1ccc(Cl)cc1)CCC2 (centres undefined) | 3.38 µM | 12.2 µM | 7.14 µM | 28.1 µM | 18 µM | > 66.2 µM | 7.91 µM | 29.6 µM | 11.6 µM | > 100 µM | 2.87 µM | 12 µM | 13.3 µM | 78.4 µM | 2.67 µM | 12.6 µM | 6.92 µM | > 87.8 µM | 19.8 µM | 99.3 µM
Cn1cc(-c2cnc3ccc4ccc(CS(=O)(=O)NCc5ccccn5)cc4c(=O)c3c2)cn1 | 21.6 µM | > 100 µM | 15 µM | 32.2 µM | 16.4 µM | > 100 µM | 33.7 µM | > 100 µM | 16.4 µM | > 93 µM | 3.33 µM | 27.5 µM | 44.9 µM | > 100 µM | 18.1 µM | > 55.6 µM | 4.78 µM | > 100 µM | 26.6 µM | > 100 µM
NS(=O)(=O)c1cccc(N=Cc2c(O)[nH]c3ccccc23)c1 | > 25 µM | > 25 µM | > 25 µM | > 25 µM | > 23.1 µM | > 25 µM | > 25 µM | > 25 µM | > 25 µM | > 25 µM | > 25 µM | > 25 µM | > 25 µM | > 25 µM | > 25 µM | > 25 µM | > 25 µM | > 25 µM | > 25 µM | > 25 µM
Cc1ccc(SC2=CC(=O)c3nc4ccccc4c4ccnc2c34)cc1 | 30.2 µM | > 100 µM | 24.7 µM | 77.7 µM | 31 µM | > 100 µM | 43 µM | > 67.4 µM | 24.3 µM | 47.2 µM | 16.3 µM | 31.2 µM | 35 µM | > 100 µM | > 100 µM | > 100 µM | 35.5 µM | > 100 µM | > 71.2 µM | > 100 µM
COc1ccc(Cl)cc1NC(=O)C(Br)C(Br)C(=O)O (centres undefined) | 6.62 µM | 20.9 µM | 11 µM | 40.5 µM | 17.2 µM | > 80.5 µM | 35.7 µM | > 100 µM | 3.27 µM | 14.3 µM | 4.27 µM | 20.7 µM | 21.9 µM | > 100 µM | 27.5 µM | 73.2 µM | 1.46 µM | > 100 µM | 27.9 µM | > 68.7 µM
CC(=O)OC1CC2(O)C3CCC4CC(O)CCC4(C)C3CCC2(C)C1C1=CC(=O)OC1 (centres undefined) | – | 0.427 µM | – | 0.773 µM | – | 0.147 µM | – | 0.11 µM | – | 0.73 µM | – | 0.357 µM | – | 0.159 µM | – | 0.392 µM | – | 1.87 µM | – | 1.25 µM
CN(C)C(=O)c1cc2cnc(Nc3ccc(-c4csc5c(=O)cc(N6CCOCC6)oc45)cc3)nc2n1C1CCCC1 | 0.2 µM | > 100 µM | 0.269 µM | 0.909 µM | 0.187 µM | 1.25 µM | 0.265 µM | 1.32 µM | 0.171 µM | > 100 µM | 0.196 µM | 1.89 µM | 0.214 µM | 1.98 µM | 0.0547 µM | 0.244 µM | 0.285 µM | > 100 µM | 0.217 µM | > 28.5 µM
O=C(O)c1ccc(N/C=C2\C(=O)c3ccccc3OC2O)cc1O (centres undefined) | 17.2 µg/mL | 45.1 µg/mL | 28.9 µg/mL | 93.1 µg/mL | 29 µg/mL | 84.6 µg/mL | 22.7 µg/mL | 65.6 µg/mL | 6.18 µg/mL | 50.3 µg/mL | 20.2 µg/mL | 68.4 µg/mL | 23.9 µg/mL | 82.5 µg/mL | 36.9 µg/mL | 83.9 µg/mL | 16 µg/mL | 87.2 µg/mL | 18.4 µg/mL | 72.4 µg/mL
Cc1cc(C)c(O)c(CN(C)Cc2cc(Cl)cc(Cl)c2O)c1 | 4.01 µM | 17.1 µM | 3.14 µM | 12.1 µM | 4.73 µM | 24 µM | 6.37 µM | 20.8 µM | 4.07 µM | 15.2 µM | 6.16 µM | 30.2 µM | 4.52 µM | 30.7 µM | 5.69 µM | 21.9 µM | 3.54 µM | > 100 µM | 4.82 µM | 20.8 µM
C=CCC1(O)c2cccc(NCCO)c2C(=O)c2c(NCCO)cccc21 | > 100 µM | > 100 µM | > 100 µM | > 100 µM | > 100 µM | > 100 µM | > 100 µM | > 100 µM | > 100 µM | > 100 µM | > 100 µM | > 100 µM | > 100 µM | > 100 µM | > 100 µM | > 100 µM | > 100 µM | > 100 µM | > 100 µM | > 100 µM
C#Cc1c(C(N)=O)ncn1C1OC(COP(=O)(OCc2ccc([N+](=O)[O-])o2)N(C)CCCCCl)C(O)C1O (centres undefined) | 53.9 µM | > 100 µM | 35.2 µM | > 100 µM | 45 µM | > 100 µM | 7.83 µM | > 100 µM | 12.7 µM | > 100 µM | 46.2 µM | > 100 µM | 82.9 µM | > 100 µM | 39.6 µM | > 100 µM | 74.2 µM | > 100 µM | 51.7 µM | > 100 µM
COc1ccc(-n2c3c(c4c(CN5CCOCC5)c(O)ccc42)CCc2ccccc2C3=O)cc1 | 85.7 µM | > 100 µM | > 100 µM | > 100 µM | > 100 µM | > 100 µM | 67.9 µM | > 100 µM | > 100 µM | > 100 µM | 12.1 µM | 47.8 µM | > 100 µM | > 100 µM | > 100 µM | > 100 µM | 17.8 µM | > 100 µM | > 100 µM | > 100 µM
O=C(O)c1cc(N=Cc2ccccc2O)cc(C(=O)O)c1 | – | > 100 µM | – | > 100 µM | – | > 100 µM | – | > 100 µM | – | > 100 µM | – | > 100 µM | – | > 100 µM | – | > 100 µM | – | > 100 µM | – | > 100 µM
Cc1cc(Nc2ncnc3ccc(NC4=NC(C)(C)CO4)cc23)ccc1Oc1ccn2ncnc2c1 | 13.4 µM and > 10 µM | 35.7 µM and > 10 µM | 16.9 µM and > 10 µM | 33.1 µM and > 10 µM | 4.48 µM and 9.46 µM | > 100 µM | 15.9 µM and > 10 µM | > 100 µM | 1.33 µM and 1.75 µM | 12.8 µM and > 10 µM | 16.4 µM and > 10 µM | 36.9 µM and > 10 µM | 5.02 µM | > 10 µM | 4.1 µM and > 10 µM | 24.8 µM and > 10 µM | 17.1 µM and > 10 µM | > 100 µM | 21.9 µM and > 10 µM | > 100 µM
C=CC(=O)N[C@H]1CCOC[C@H]1Nc1ncc2cc(-c3c(Cl)c(OC)cc(OC)c3Cl)ccc2n1 | 26.5 µM | > 100 µM | 32.3 µM | > 100 µM | 15.8 µM | > 100 µM | 24.4 µM | > 100 µM | 7.51 µM | 85.5 µM | 15.3 µM | 65.8 µM | 4.31 µM | 94.3 µM | 3.36 µM | 33.7 µM | 13.9 µM | > 100 µM | 26.5 µM | > 100 µM

Reference: PubChem BioAssay (NCI)
